Experimental data reported in ChEMBL document CHEMBL6182889, “Discovery of the first-in-class DOT1L PROTAC degrader” (Eur J Med Chem, 2025).
Active and inactive are the calls of the source. No cut-off for these calls is given here.

Assays:
[1] = target: T1, Histone-lysine N-methyltransferase EHMT1 (Homo sapiens) (UniProt Q9H9B1); test: Inhibition of human GLP using Histone H3 and SAM as substrate at 10 uM by radiometric Hotspot assay
T1 sequence (whole entry): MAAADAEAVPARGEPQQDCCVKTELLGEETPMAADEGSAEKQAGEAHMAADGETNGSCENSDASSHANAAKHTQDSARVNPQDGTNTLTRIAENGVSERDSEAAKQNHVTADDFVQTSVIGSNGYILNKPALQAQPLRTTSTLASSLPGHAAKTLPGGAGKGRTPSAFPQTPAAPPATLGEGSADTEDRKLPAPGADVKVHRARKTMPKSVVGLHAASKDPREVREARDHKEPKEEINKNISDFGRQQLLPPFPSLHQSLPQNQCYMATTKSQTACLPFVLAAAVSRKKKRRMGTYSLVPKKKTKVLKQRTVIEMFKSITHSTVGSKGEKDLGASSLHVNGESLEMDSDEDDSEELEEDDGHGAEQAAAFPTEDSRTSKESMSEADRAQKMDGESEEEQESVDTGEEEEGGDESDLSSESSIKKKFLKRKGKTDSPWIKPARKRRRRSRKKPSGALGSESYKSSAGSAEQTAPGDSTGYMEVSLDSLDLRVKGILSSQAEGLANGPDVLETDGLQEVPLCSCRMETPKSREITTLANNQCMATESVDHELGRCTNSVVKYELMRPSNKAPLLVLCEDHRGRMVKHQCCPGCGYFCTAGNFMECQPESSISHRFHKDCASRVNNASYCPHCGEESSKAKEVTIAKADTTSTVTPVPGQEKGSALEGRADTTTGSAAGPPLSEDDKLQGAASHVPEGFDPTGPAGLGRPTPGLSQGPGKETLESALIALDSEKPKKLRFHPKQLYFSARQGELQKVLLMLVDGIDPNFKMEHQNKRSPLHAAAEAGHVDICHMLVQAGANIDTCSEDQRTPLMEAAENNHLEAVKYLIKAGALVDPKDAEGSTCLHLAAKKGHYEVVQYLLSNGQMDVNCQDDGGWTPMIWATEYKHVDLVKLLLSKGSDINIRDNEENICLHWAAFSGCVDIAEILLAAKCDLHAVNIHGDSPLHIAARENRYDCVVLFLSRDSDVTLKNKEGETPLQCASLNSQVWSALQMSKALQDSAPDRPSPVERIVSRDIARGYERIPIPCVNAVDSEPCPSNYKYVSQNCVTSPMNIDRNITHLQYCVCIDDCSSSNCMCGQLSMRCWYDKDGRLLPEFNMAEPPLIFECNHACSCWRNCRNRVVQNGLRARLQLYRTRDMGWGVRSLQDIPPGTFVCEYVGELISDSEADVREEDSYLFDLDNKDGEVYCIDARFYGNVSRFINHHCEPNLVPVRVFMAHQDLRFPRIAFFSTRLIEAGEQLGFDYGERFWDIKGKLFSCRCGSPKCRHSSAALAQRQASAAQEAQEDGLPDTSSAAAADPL

[2] = target: DNA (cytosine-5)-methyltransferase 3A (Homo sapiens) (UniProt Q9Y6K1); test: Inhibition of human DNMT3a using lambda DNA and SAM as substrate at 10 uM by radiometric Hotspot assay
[3] = target: T2, von Hippel-Lindau disease tumor suppressor/Histone-lysine N-methyltransferase, H3 lysine-79 specific (Homo sapiens, UniProt Q8TEK3+P40337); test: PROTAC activity at VHL/DOT1L in mixed-lineage leukemia rearranged (MLL-r) human THP-1 cells assessed as induction of DOTIL degradation by measuring fold change in H3K79Me2 level at 3 uM incubated for 4 hrs by western blot analysis relative to control; type: cell-based
[4] = target: T2, von Hippel-Lindau disease tumor suppressor/Histone-lysine N-methyltransferase, H3 lysine-79 specific; test: PROTAC activity at VHL/DOTIL in mixed-lineage leukemia rearranged (MLL-r) human THP-1 cells assessed as induction of DOT1L degradation by measuring fold change in DOTIL protein level at 3 uM incubated for 24 hrs by western blot analysis relative to control; type: cell-based
[5] = target: T2, von Hippel-Lindau disease tumor suppressor/Histone-lysine N-methyltransferase, H3 lysine-79 specific; test: PROTAC activity at VHL/DOT1L in mixed-lineage leukemia rearranged (MLL-r) human MV4-11 cells assessed as induction of DOTIL degradation by measuring fold change in H3K79Me2 level at 3 uM incubated for 8 hrs by western blot analysis relative to control; type: cell-based
[6] = target: T2, von Hippel-Lindau disease tumor suppressor/Histone-lysine N-methyltransferase, H3 lysine-79 specific; test: PROTAC activity at VHL/DOT1L in mixed-lineage leukemia rearranged (MLL-r) human MV4-11 cells assessed as induction of DOTIL degradation by measuring fold change in DOT1L protein level at 3 uM incubated for 24 hrs by western blot analysis relative to control; type: cell-based
[7] = target: T2, von Hippel-Lindau disease tumor suppressor/Histone-lysine N-methyltransferase, H3 lysine-79 specific; test: PROTAC activity at VHL/DOT1L in mixed-lineage leukemia rearranged (MLL-r) human MOLM-13 cells assessed as induction of DOT1L degradation at 0.3 to 3 uM by western blot analysis; type: cell-based; conditions: dose 0.3-3 µM
[8] = target: T2, von Hippel-Lindau disease tumor suppressor/Histone-lysine N-methyltransferase, H3 lysine-79 specific; test: PROTAC activity against VHL/DOT1L in mixed-lineage leukemia rearranged (MLL-r) human THP-1 cells assessed as induction of DOT1L degradation at 3 uM preincubated with proteasome inhibitor, MG-132 for 1 hr followed by incubation with compound for 4 hrs by western blot analysis; type: cell-based
PNT2 = test: Cytotoxicity against human PNT2 cells assessed as inhibition of cell growth incubated for 7 days by CCK-8 assay; type: toxicity, cell-based; conditions: pnt2, 168 h, time 7 day
[9] = target: PRMT5/MEP50 complex (Homo sapiens) (UniProt O14744+Q9BQA1); test: Inhibition of human PRMT5/MEP50 complex using histone H2A and SAM as substrate at 10 uM by radiometric Hotspot assay; type: protein-complex assay
[10] = target: T2, von Hippel-Lindau disease tumor suppressor/Histone-lysine N-methyltransferase, H3 lysine-79 specific; test: PROTAC activity at VHL/DOT1L in mixed-lineage leukemia rearranged (MLL-r) human MV4-11 cells assessed as induction of DOTIL degradation by measuring fold change in H3K79Me2 level at 3 uM incubated for 1 hr by western blot analysis relative to control; type: cell-based
[11] = target: T2, von Hippel-Lindau disease tumor suppressor/Histone-lysine N-methyltransferase, H3 lysine-79 specific; test: PROTAC activity at VHL/DOT1L in mixed-lineage leukemia rearranged (MLL-r) human THP-1 cells assessed as induction of DOTIL degradation by measuring fold change in H3K79Me2 level at 3 uM incubated for 8 hrs by western blot analysis relative to control; type: cell-based
[12] = target: Protein arginine N-methyltransferase 6 (Homo sapiens) (UniProt Q96LA8); test: Inhibition of PRMT6 (unknown origin) at 10 uM by radiometric methyltransferase assay
Chain of Protein arginine N-methyltransferase 6 (Homo sapiens) (Q96LA8 whole entry, looked up): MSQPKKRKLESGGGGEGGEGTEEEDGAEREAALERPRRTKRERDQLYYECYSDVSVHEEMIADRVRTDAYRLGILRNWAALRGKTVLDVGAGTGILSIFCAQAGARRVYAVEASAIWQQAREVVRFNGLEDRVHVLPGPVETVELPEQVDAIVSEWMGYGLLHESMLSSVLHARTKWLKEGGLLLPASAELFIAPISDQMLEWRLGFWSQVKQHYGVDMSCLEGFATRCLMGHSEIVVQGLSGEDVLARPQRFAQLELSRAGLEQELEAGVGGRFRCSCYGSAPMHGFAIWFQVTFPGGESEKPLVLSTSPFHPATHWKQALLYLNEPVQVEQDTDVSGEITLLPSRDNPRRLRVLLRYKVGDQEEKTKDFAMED

T2 sequence (P40337 whole entry, looked up): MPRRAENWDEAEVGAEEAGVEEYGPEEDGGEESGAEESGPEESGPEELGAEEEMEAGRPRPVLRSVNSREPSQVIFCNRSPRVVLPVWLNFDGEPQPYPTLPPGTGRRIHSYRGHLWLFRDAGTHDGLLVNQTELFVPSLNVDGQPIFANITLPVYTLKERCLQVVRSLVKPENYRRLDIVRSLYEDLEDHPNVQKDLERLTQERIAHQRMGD
T2 sequence (Q8TEK3 whole entry, looked up): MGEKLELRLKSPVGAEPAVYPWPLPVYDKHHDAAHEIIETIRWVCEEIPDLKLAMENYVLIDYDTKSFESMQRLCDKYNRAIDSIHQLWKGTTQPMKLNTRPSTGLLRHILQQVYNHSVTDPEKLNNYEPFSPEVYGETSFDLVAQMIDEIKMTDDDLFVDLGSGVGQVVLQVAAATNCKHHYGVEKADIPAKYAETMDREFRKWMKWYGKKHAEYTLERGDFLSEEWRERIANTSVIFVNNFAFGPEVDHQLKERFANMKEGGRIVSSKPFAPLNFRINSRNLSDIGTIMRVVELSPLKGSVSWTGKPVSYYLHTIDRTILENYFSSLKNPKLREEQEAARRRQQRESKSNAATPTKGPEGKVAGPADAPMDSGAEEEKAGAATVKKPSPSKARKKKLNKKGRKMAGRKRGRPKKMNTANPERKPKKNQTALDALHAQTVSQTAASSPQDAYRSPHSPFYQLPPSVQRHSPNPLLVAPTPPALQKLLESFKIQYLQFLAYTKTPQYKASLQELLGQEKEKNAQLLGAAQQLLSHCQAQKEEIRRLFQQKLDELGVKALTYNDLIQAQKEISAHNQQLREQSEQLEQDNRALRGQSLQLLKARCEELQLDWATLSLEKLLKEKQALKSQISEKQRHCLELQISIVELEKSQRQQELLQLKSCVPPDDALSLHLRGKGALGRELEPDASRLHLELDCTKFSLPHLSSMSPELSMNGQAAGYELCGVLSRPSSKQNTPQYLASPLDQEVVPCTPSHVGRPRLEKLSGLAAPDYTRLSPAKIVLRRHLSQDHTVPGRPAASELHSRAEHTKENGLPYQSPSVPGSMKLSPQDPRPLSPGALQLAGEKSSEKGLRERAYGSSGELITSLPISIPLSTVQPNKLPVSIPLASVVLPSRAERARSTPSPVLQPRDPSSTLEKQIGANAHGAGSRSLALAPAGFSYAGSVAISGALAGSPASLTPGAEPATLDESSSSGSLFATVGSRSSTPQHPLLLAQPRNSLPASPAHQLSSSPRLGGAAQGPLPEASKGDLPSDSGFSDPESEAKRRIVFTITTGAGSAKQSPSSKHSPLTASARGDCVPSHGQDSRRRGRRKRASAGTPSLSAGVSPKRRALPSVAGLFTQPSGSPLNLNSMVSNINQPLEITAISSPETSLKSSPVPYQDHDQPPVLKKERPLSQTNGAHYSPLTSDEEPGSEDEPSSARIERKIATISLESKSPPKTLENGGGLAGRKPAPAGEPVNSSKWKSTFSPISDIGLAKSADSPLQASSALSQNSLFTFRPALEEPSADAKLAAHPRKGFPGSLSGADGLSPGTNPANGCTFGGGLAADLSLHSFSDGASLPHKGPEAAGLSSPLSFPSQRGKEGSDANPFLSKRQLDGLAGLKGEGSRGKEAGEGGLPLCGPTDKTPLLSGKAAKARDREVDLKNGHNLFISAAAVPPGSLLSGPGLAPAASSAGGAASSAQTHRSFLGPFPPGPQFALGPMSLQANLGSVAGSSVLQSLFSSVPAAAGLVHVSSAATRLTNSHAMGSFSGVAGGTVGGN
Chain of DNA (cytosine-5)-methyltransferase 3A (Homo sapiens) (Q9Y6K1 whole entry, looked up): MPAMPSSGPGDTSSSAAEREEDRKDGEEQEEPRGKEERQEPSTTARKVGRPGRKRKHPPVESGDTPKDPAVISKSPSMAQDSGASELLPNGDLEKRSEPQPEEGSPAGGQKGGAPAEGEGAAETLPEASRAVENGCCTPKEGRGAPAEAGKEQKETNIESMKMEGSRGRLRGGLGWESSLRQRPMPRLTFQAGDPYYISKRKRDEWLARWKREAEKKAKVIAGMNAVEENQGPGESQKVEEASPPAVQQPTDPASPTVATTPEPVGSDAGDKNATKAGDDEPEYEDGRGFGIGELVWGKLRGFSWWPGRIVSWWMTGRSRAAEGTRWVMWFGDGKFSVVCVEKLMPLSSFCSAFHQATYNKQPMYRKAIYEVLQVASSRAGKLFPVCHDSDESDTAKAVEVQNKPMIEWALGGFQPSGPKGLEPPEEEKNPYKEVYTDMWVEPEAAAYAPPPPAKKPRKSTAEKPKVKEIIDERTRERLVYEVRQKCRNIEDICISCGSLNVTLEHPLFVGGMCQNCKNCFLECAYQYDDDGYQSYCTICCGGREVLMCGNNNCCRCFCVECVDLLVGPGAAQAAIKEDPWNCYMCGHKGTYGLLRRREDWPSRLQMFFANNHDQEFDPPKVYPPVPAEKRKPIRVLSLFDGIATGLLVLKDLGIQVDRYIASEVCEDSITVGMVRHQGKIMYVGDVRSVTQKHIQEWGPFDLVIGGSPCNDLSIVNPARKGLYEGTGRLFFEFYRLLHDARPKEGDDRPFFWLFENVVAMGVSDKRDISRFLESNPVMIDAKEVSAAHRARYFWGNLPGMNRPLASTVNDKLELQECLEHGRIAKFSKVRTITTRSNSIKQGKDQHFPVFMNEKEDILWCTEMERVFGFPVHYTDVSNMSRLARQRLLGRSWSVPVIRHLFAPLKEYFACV

SMILES: Cc1ncsc1-c1ccc([C@H](CC(=O)NCCCCCCNC(=O)COc2nc(N)nc(Nc3cc(S(N)(=O)=O)ccc3N[C@@H](c3cccc4c3OC(F)(F)O4)c3ncccc3Cl)n2)NC(=O)[C@@H]2C[C@@H](O)CN2C(=O)[C@@H](NC(=O)C2(F)CC2)C(C)(C)C)cc1
- inhibition [1]: inactive
- inhibition [2]: inactive
- fold change (FC) [3]: 1.08
- fold change (FC) [4]: 0.08
- fold change (FC) [5]: 0.42
- fold change (FC) [6]: 0.07
- Activity [7]: Active
- Activity [8]: inactive
- Activity (PNT2): Non-toxic
- inhibition [9]: inactive
- fold change (FC) [10]: 0.34
- fold change (FC) [11]: 1.13
- inhibition [12]: inactive
